According to the NIST ThermoML archive (doi:10.1016/j.fluid.2017.06.024):

Assay: molar heat capacity at constant pressure
Settings: 100 kPa, Liquid, DSC

CC(C)OC(C)C [diisopropyl ether]
Settings	molar heat capacity at constant pressure [J/K/mol]
290.5 K	210.58
295.44 K	212.42
300.38 K	214.46
305.32 K	216.51
310.26 K	218.55
315.19 K	220.6
320.13 K	222.64
325.07 K	224.68
330.01 K	226.93
334.95 K	229.08
339.89 K	231.22
